Measured values taken from the supplement of paper PMC10307832.

What was measured:
Assay in all cases: relative viability (nuclei count vs DMSO), 5 days (fraction); higher = more cells survive
[1] = compound: CC1=CC=C(C=C1)C(=O)CN2C3=C(CCCC3)SC2=N [Pifithrin_alpha] + CC(=O)Nc1cccc(-n2c(=O)n(C3CC3)c(=O)c3c(Nc4ccc(I)cc4F)n(C)c(=O)c(C)c32)c1 [Trametinib] (partner 0.02 µM)
In short: (§1)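 Five library-drug doses in √10 steps were combined with a fixed anchor-drug dose, or a single drug was given alone, by pin tool to lung cancer cell lines in 1536-well plates the day after seeding. Nuclei were stained and counted after 5 days. Relative viability is the nuclei count in treated wells over that in vehicle wells, taken as the median of duplicate plates.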

[2] = compound: CC1=CC=C(C=C1)C(=O)CN2C3=C(CCCC3)SC2=N [Pifithrin_alpha] + CS(=O)(=O)N1CCN(Cc2cc3nc(-c4cccc5[nH]ncc45)nc(N4CCOCC4)c3s2)CC1 [Pictilisib] (partner 1 µM)
In short: as §1

Axitinib + Linsitinib = compound: CNC(=O)c1ccccc1Sc1ccc2c(/C=C/c3ccccn3)n[nH]c2c1 [Axitinib] + C[C@]1(O)C[C@@H](c2nc(-c3ccc4ccc(-c5ccccc5)nc4c3)c3c(N)nccn32)C1 [Linsitinib] (partner 1 µM)
In short: as §1

[3] = compound: CC1=CC=C(C=C1)C(=O)CN2C3=C(CCCC3)SC2=N [Pifithrin_alpha] + O=C(c1cc(Cc2n[nH]c(=O)c3ccccc23)ccc1F)N1CCN(C(=O)C2CC2)CC1 [Olaparib] (partner 8 µM)
In short: as §1

Cell Line NCI-H650 has a relative viability ([1]; first compound 3.162 µM) of 0.947, a relative viability ([1]; first compound 10 µM) of 0.978 and a relative viability ([1]; first compound 31.62 µM) of 0.785. The relative viability ([1]; first compound 100 µM) was 0.985, the relative viability ([2]; first compound 3.162 µM) was 0.91 and the relative viability ([2]; first compound 10 µM) was 0.873. The relative viability ([2]; first compound 31.62 µM) was 0.58, the relative viability ([2]; first compound 100 µM) was 0.763 and the relative viability (Axitinib + Linsitinib; first compound 0.005 µM) was 0.969. For the same cell line, the relative viability (Axitinib + Linsitinib; first compound 0.01581 µM) was 0.866, the relative viability (Axitinib + Linsitinib; first compound 0.05 µM) was 0.916 and the relative viability (Axitinib + Linsitinib; first compound 0.1581 µM) was 0.713. It also gave a relative viability (Axitinib + Linsitinib; first compound 0.5 µM) of 0.759, a relative viability ([3]; first compound 3.162 µM) of 0.398 and a relative viability ([3]; first compound 10 µM) of 0.339. For the same cell line, the relative viability ([3]; first compound 31.62 µM) was 0.221 and the relative viability ([3]; first compound 100 µM) was 0.355.
